According to ChEMBL document CHEMBL4177730, “Rational modification of semaxanib and sunitinib for developing a tumor growth inhibitor targeting ATP binding site of tyrosine kinase” (2018):
Calls of active or inactive are those of the source.

Legend:
Assay type in all cases: functional, cell-based
CCRF-CEM = experiment: Growth inhibition of human CCRF-CEM cells at 10 uM after 48 hrs by sulforhodamine B assay
HL-60(TB) = experiment: Growth inhibition of human HL-60(TB) cells at 10 uM after 48 hrs by sulforhodamine B assay
K562 = experiment: Growth inhibition of human K562 cells at 10 uM after 48 hrs by sulforhodamine B assay
MOLT-4 = experiment: Growth inhibition of human MOLT4 cells at 10 uM after 48 hrs by sulforhodamine B assay
RPMI-8226 = experiment: Growth inhibition of human RPMI8226 cells at 10 uM after 48 hrs by sulforhodamine B assay
SR = experiment: Growth inhibition of human SR cells at 10 uM after 48 hrs by sulforhodamine B assay
A549 = experiment: Growth inhibition of human A549/ATCC cells at 10 uM after 48 hrs by sulforhodamine B assay
EKVX = experiment: Growth inhibition of human EKVX cells at 10 uM after 48 hrs by sulforhodamine B assay
HOP-62 = experiment: Growth inhibition of human HOP62 cells at 10 uM after 48 hrs by sulforhodamine B assay
HOP-92 = experiment: Growth inhibition of human HOP92 cells at 10 uM after 48 hrs by sulforhodamine B assay
NCI-H226 = experiment: Growth inhibition of human NCI-H226 cells at 10 uM after 48 hrs by sulforhodamine B assay
NCI-H23 = experiment: Growth inhibition of human NCI-H23 cells at 10 uM after 48 hrs by sulforhodamine B assay
NCI-H322M = experiment: Growth inhibition of human NCI-H322M cells at 10 uM after 48 hrs by sulforhodamine B assay
NCI-H460 = experiment: Growth inhibition of human NCI-H460 cells at 10 uM after 48 hrs by sulforhodamine B assay
NCI-H522 = experiment: Growth inhibition of human NCI-H522 cells at 10 uM after 48 hrs by sulforhodamine B assay
COLO 205 = experiment: Growth inhibition of human COLO205 cells at 10 uM after 48 hrs by sulforhodamine B assay
HCC 2998 = experiment: Growth inhibition of human HCC2998 cells at 10 uM after 48 hrs by sulforhodamine B assay
HCT-116 = experiment: Growth inhibition of human HCT116 cells at 10 uM after 48 hrs by sulforhodamine B assay
HCT-15 = experiment: Growth inhibition of human HCT15 cells at 10 uM after 48 hrs by sulforhodamine B assay
HT-29 = experiment: Growth inhibition of human HT-29 cells at 10 uM after 48 hrs by sulforhodamine B assay
KM12 = experiment: Growth inhibition of human KM12 cells at 10 uM after 48 hrs by sulforhodamine B assay
SW-620 = experiment: Growth inhibition of human SW620 cells at 10 uM after 48 hrs by sulforhodamine B assay
SF-268 = experiment: Growth inhibition of human SF268 cells at 10 uM after 48 hrs by sulforhodamine B assay
SF-295 = experiment: Growth inhibition of human SF295 cells at 10 uM after 48 hrs by sulforhodamine B assay
SF-539 = experiment: Growth inhibition of human SF539 cells at 10 uM after 48 hrs by sulforhodamine B assay
SNB-19 = experiment: Growth inhibition of human SNB19 cells at 10 uM after 48 hrs by sulforhodamine B assay
SNB-75 = experiment: Growth inhibition of human SNB75 cells at 10 uM after 48 hrs by sulforhodamine B assay
U-251 = experiment: Growth inhibition of human U251 cells at 10 uM after 48 hrs by sulforhodamine B assay
LOX IMVI = experiment: Growth inhibition of human LOXIMVI cells at 10 uM after 48 hrs by sulforhodamine B assay
Malme-3M = experiment: Growth inhibition of human MALME-3M cells at 10 uM after 48 hrs by sulforhodamine B assay
M14 = experiment: Growth inhibition of human M14 cells at 10 uM after 48 hrs by sulforhodamine B assay
MDA-MB-435 = experiment: Growth inhibition of human MDA-MB-435 cells at 10 uM after 48 hrs by sulforhodamine B assay
SK-MEL-2 = experiment: Growth inhibition of human SK-MEL-2 cells at 10 uM after 48 hrs by sulforhodamine B assay
SK-MEL-28 = experiment: Growth inhibition of human SK-MEL-28 cells at 10 uM after 48 hrs by sulforhodamine B assay
SK-MEL-5 = experiment: Growth inhibition of human SK-MEL-5 cells at 10 uM after 48 hrs by sulforhodamine B assay
UACC-62 = experiment: Growth inhibition of human UACC62 cells at 10 uM after 48 hrs by sulforhodamine B assay
IGROV-1 = experiment: Growth inhibition of human IGROV1 cells at 10 uM after 48 hrs by sulforhodamine B assay
OVCAR-3 = experiment: Growth inhibition of human OVCAR3 cells at 10 uM after 48 hrs by sulforhodamine B assay
OVCAR-4 = experiment: Growth inhibition of human OVCAR4 cells at 10 uM after 48 hrs by sulforhodamine B assay
OVCAR-5 = experiment: Growth inhibition of human OVCAR5 cells at 10 uM after 48 hrs by sulforhodamine B assay
OVCAR-8 = experiment: Growth inhibition of human OVCAR8 cells at 10 uM after 48 hrs by sulforhodamine B assay
NCI/ADR-RES = experiment: Growth inhibition of human NCI-ADR-RES cells at 10 uM after 48 hrs by sulforhodamine B assay
SK-OV-3 = experiment: Growth inhibition of human SKOV3 cells at 10 uM after 48 hrs by sulforhodamine B assay
786-0 = experiment: Growth inhibition of human 786-0 cells at 10 uM after 48 hrs by sulforhodamine B assay
A498 = experiment: Growth inhibition of human A498 cells at 10 uM after 48 hrs by sulforhodamine B assay
ACHN = experiment: Growth inhibition of human ACHN cells at 10 uM after 48 hrs by sulforhodamine B assay
CAKI-1 = experiment: Growth inhibition of human CAKI-1 cells at 10 uM after 48 hrs by sulforhodamine B assay
RXF 393 = experiment: Growth inhibition of human RXF393 cells at 10 uM after 48 hrs by sulforhodamine B assay
SN12C = experiment: Growth inhibition of human SN12C cells at 10 uM after 48 hrs by sulforhodamine B assay
TK-10 = experiment: Growth inhibition of human TK10 cells at 10 uM after 48 hrs by sulforhodamine B assay
UO-31 = experiment: Growth inhibition of human UO31 cells at 10 uM after 48 hrs by sulforhodamine B assay
PC-3 = experiment: Growth inhibition of human PC3 cells at 10 uM after 48 hrs by sulforhodamine B assay
DU-145 = experiment: Growth inhibition of human DU145 cells at 10 uM after 48 hrs by sulforhodamine B assay
MCF7 = experiment: Growth inhibition of human MCF7 cells at 10 uM after 48 hrs by sulforhodamine B assay
MDA-MB-231 = experiment: Growth inhibition of human MDA-MB-231 cells at 10 uM after 48 hrs by sulforhodamine B assay
Hs-578T = experiment: Growth inhibition of human Hs 578T cells at 10 uM after 48 hrs by sulforhodamine B assay
BT-549 = experiment: Growth inhibition of human BT549 cells at 10 uM after 48 hrs by sulforhodamine B assay
T47D = experiment: Growth inhibition of human T47D cells at 10 uM after 48 hrs by sulforhodamine B assay
MDA-MB-468 = experiment: Growth inhibition of human MDA-MB-468 cells at 10 uM after 48 hrs by sulforhodamine B assay

Measured: growth inhibition (GI)

O=C1/C(=C\c2cccn2Cc2ccc(Cl)cc2)c2ccccc2N1c1c(Cl)cccc1Cl
inactive: all assays above

O=C1/C(=C\c2cccn2C(=O)c2ccccc2)c2ccccc2N1c1c(Cl)cccc1Cl
inactive: all assays above
